This note sets out measurements from US20080275078A1, “Pyrazolo[3,4-B] Pyridine Compounds and Their Use as Pde4 Inhibitors” (Glaxo Group Limited, priority 2004, published 2008).

The target in this experiment is T1, PDE4B (human recombinant) (Homo sapiens, UniProt Q07343).
T1 construct: made in house; host or cells: Saccharomyces cerevisiae strain GL62 (PDE-deficient yeast), 100,000xg supernatant of cell lysate, as described in WO 94/20079
T1 sequence (Q07343 1-564 isoform Q07343-2): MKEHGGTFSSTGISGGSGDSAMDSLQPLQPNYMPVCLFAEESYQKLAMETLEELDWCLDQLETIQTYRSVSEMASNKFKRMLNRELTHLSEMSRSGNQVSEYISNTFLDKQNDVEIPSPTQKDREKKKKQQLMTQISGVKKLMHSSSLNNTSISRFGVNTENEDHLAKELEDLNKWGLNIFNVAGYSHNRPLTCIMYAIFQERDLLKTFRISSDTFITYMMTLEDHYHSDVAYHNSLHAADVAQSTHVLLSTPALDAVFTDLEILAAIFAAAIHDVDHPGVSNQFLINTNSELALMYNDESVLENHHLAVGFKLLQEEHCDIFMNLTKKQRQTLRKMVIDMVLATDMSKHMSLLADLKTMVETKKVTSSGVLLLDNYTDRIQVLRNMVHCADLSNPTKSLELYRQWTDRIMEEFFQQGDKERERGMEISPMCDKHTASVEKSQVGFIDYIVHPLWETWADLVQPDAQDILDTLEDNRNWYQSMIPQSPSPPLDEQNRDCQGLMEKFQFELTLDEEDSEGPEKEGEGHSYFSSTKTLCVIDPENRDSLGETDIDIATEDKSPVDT
The experiment can be described thus: Inhibition of PDE4B activity (SPA or FP assay). As to conditions: SPA or FP assay or similar; n=1 or average of 2 or more readings; range given for the listed group of Examples; read-out: PDE4B pIC50 (±about 0.5) (converted). The experiment is classed as biochemical. The source says:
Human recombinant PDE4B, in particular the 2B splice variant thereof (HSPDE4B2B), is disclosed in WO 94/20079 and also M. M. McLaughlin et al., “A low Km, rolipram-sensitive, cAMP-specific phosphodiesterase from human brain: cloning and expression of cDNA, biochemical characterisation of recombinant protein, and tissue distribution of mRNA”, J. Biol. Chem., 1993, 268, 6470-6476. For example, in Example 1 of WO 94/20079, human recombinant PDE4B is described as being expressed in the PDE-deficient yeast Saccharomyces cerevisiae strain GL62, e.g. after induction by addition of 150 uM CuSO4, and 100,000×g supernatant fractions of yeast cell lysates are described for use in the harvesting of PDE4B enzyme.
The ability of compounds to inhibit catalytic activity at PDE4B or 4D (human recombinant), PDE3 (from bovine aorta), PDE5 (human recombinant) or PDE6 (from bovine retina) can optionally be determined by Scintillation Proximity Assay (SPA) in a 96-well format. • Test compounds (as a solution in DMSO, preferably about 2 microlitre (ul) volume of DMSO solution) are preincubated at ambient temperature (room temperature, e.g. 19-23° C.) in Wallac Isoplates (code 1450-514) with PDE enzyme in 50 mM Tris-HCl buffer pH 7.5, 8.3 mM MgCl2, 1.7 mM EGTA, 0.05% (w/v) bovine serum albumin for 10-30 minutes (usually 30 minutes). The enzyme concentration is adjusted so that no more than 20% hydrolysis of the substrate defined below occurs in control wells without compound, during the incubation. For the PDE3, PDE4B and PDE4D assays, [5′,8-^3H]Adenosine 3′,5′-cyclic phosphate (Amersham Pharmacia Biotech, code TRK.559; or Amersham Biosciences UK Ltd, Pollards Wood, Chalfont St Giles, Buckinghamshire HP8 4SP, UK) is added to give 0.05 uCi per well and about 10 nM final concentration. For the PDE5 and PDE6 assays, [8-^3H]Guanosine 3′,5′-cyclic phosphate (Amersham Pharmacia Biotech, code TRK.392) is added to give 0.05 uCi per well and about 36 nM final concentration. Plates containing assay mixture, preferably approx. 100 ul volume of assay mixture, are mixed on an orbital shaker for 5 minutes and incubated at ambient temperature for 1 hour. Phosphodiesterase SPA beads (Amersham Pharmacia Biotech, code RPNQ 0150) are added (about 1 mg per well) to terminate the assay. Plates are sealed and shaken and allowed to stand at ambient temperature for 35 minutes to 1 hour (preferably 35 minutes) to allow the beads to settle. Bound radioactive product is measured using a WALLAC TRILUX 1450 Microbeta scintillation counter. For inhibition curves, 10 concentrations (e.g. 1.5 nM-30 uM) of each compound are assayed. Curves are analysed using ActivityBase and XLfit (ID Business Solutions Limited, 2 Ocean Court, Surrey Research Park, Guildford, Surrey GU2 7QB, United Kingdom) Results are expressed as pIC50 values.
The ability of compounds to inhibit catalytic activity at PDE4B (human recombinant) or PDE4D (human recombinant) can optionally be determined by IMAP Fluorescence Polarisation (FP) assay (IMAP Explorer kit, available from Molecular Devices Corporation, Sunnydale, Calif., USA; Molecular Devices code: R8062) in a 384-well format.
The IMAP FP assay is able to measure PDE activity in an homogenous, non-radioactive assay format. The FP assay uses the ability of immobilised trivalent metal cations, coated onto nanoparticles (tiny beads), to bind the phosphate group of Fl-AMP that is produced on the hydrolysis of fluorescein-labelled (Fl) cyclic adenosine mono-phosphate (Fl-cAMP) to the non-cyclic Fl-AMP form. […] Binding of Fl-AMP product to the beads (coated with the immobilised trivalent cations) slows the rotation of the bound Fl-AMP and leads to an increase in the fluorescence polarisation ratio of parallel to perpendicular light. Inhibition of the PDE reduces/inhibits this signal increase. […]
With `CCn1ncc2c(NC3CCN(C(N)=O)CC3)c(C(=O)NCc3ccc(C)cc3C)cnc21` [Example 1, 4-{[1-(aminocarbonyl)-4-piperidinyl]amino}-N-[(2,4-dimethylphenyl)methyl]-1-ethyl-1H-pyrazolo[3,4-b]pyridine-5-carboxamide], the IC50 is 0.631 to 0.794 nM. Take `CCn1ncc2c(NC3CCN(C(N)=O)CC3)c(C(=O)NCc3ccc(OC)cc3)cnc21` [Example 3, 4-{[1-(aminocarbonyl)-4-piperidinyl]amino}-1-ethyl-N-{[4-(methyloxy)phenyl]methyl}-1H-pyrazolo[3,4-b]pyridine-5-carboxamide]: the IC50 is 1 to 3.16 nM. As for `CCn1ncc2c(NC3CCC(C(N)=O)CC3)c(C(=O)NCc3ccc(C)c(C)c3)cnc21` (stereo not drawn) [Example 4, 4-{[4-(aminocarbonyl)cyclohexyl]amino}-N-[(3,4-dimethylphenyl)methyl]-1-ethyl-1H-pyrazolo[3,4-b]pyridine-5-carboxamide], the IC50 was 1 to 3.16 nM. On to `CCn1ncc2c(NC3CCC(C(N)=O)CC3)c(C(=O)NCc3ccc(C)cc3C)cnc21` (stereo not drawn) [Example 5, 4-{[4-(aminocarbonyl)cyclohexyl]amino}-N-[(2,4-dimethylphenyl)methyl]-1-ethyl-1H-pyrazolo[3,4-b]pyridine-5-carboxamide], for which the IC50 is 1 to 3.16 nM. In the case of `CCn1ncc2c(N[C@H]3CC[C@@H](C(N)=O)CC3)c(C(=O)NCc3ccc(C)c(C)c3)cnc21` [Example 8, 4-{[cis-4-(aminocarbonyl)cyclohexyl]amino}-N-[(3,4-dimethylphenyl)methyl]-1-ethyl-1H-pyrazolo[3,4-b]pyridine-5-carboxamide] it was 1 to 3.16 nM; in that of `CCn1ncc2c(N[C@H]3CC[C@H](C(N)=O)CC3)c(C(=O)NCc3ccc(C)c(C)c3)cnc21` [Example 9, 4-{[trans-4-(aminocarbonyl)cyclohexyl]amino}-N-[(3,4-dimethylphenyl)methyl]-1-ethyl-1H-pyrazolo[3,4-b]pyridine-5-carboxamide], 158 to 200 nM; in that of `CCn1ncc2c(N[C@H]3CC[C@@H](C(N)=O)CC3)c(C(=O)NCc3ccc(C)cc3C)cnc21` [Example 45, 4-{[cis-4-(aminocarbonyl)cyclohexyl]amino}-N-[(2,4-dimethylphenyl)methyl]-1-ethyl-1H-pyrazolo[3,4-b]pyridine-5-carboxamide], 1.26 to 5.01 nM.

In the case of `CCn1ncc2c(N[C@H]3CC[C@H](C(N)=O)CC3)c(C(=O)NCc3ccc(C)cc3C)cnc21` [Example 46, 4-{[trans-4-(aminocarbonyl)cyclohexyl]amino}-N-[(2,4-dimethylphenyl)methyl]-1-ethyl-1H-pyrazolo[3,4-b]pyridine-5-carboxamide], the IC50 is 158 to 200 nM. The value for `CCn1ncc2c(N[C@H]3CC[C@@H](C(N)=O)CC3)c(C(=O)NCc3ccc(OC)cc3)cnc21` [Example 47, 4-{[cis-4-(aminocarbonyl)cyclohexyl]amino}-1-ethyl-N-{[4-(methyloxy)phenyl]methyl}-1H-pyrazolo[3,4-b]pyridine-5-carboxamide] was 1.26 to 5.01 nM; that for `CCn1ncc2c(N[C@H]3CCN(C(N)=O)C3)c(C(=O)NCc3ccc(C)cc3C)cnc21` [Example 69, 4-{[(3S)-1-(aminocarbonyl)-3-pyrrolidinyl]amino}-N-[(2,4-dimethylphenyl)methyl]-1-ethyl-1H-pyrazolo[3,4-b]pyridine-5-carboxamide] was about 10 nM. In the case of `CCn1ncc2c(N[C@H]3CCN(C(N)=O)C3)c(C(=O)NCc3ccc(C)c(C)c3)cnc21` [Example 70, 4-{[(3S)-1-(aminocarbonyl)-3-pyrrolidinyl]amino}-N-[(3,4-dimethylphenyl)methyl]-1-ethyl-1H-pyrazolo[3,4-b]pyridine-5-carboxamide] it was about 10 nM; in that of `CCn1ncc2c(N[C@@H]3CCN(C(N)=O)C3)c(C(=O)NCc3ccc(C)cc3C)cnc21` [Example 71, 4-{[(3R)-1-(aminocarbonyl)-3-pyrrolidinyl]amino}-N-[(2,4-dimethylphenyl)methyl]-1-ethyl-1H-pyrazolo[3,4-b]pyridine-5-carboxamide], 31.6 to 100 nM.
